One experiment concerns the target T1, thrombin fibrin monomer (Homo sapiens, UniProt P02671+P02675+P02679).
T1 construct: Thrombin cleaves the bonds Aα16 Arg-17 Gly and Bβ14 Arg-15 Gly, releasing two molecules of fibrinopeptide A and two molecules of fibrinopeptide B; made in house; host or cells: not recombinant: made from fibrinogen by treatment with thrombin
T1 sequence (P02671 36-629 isoform P02671-2): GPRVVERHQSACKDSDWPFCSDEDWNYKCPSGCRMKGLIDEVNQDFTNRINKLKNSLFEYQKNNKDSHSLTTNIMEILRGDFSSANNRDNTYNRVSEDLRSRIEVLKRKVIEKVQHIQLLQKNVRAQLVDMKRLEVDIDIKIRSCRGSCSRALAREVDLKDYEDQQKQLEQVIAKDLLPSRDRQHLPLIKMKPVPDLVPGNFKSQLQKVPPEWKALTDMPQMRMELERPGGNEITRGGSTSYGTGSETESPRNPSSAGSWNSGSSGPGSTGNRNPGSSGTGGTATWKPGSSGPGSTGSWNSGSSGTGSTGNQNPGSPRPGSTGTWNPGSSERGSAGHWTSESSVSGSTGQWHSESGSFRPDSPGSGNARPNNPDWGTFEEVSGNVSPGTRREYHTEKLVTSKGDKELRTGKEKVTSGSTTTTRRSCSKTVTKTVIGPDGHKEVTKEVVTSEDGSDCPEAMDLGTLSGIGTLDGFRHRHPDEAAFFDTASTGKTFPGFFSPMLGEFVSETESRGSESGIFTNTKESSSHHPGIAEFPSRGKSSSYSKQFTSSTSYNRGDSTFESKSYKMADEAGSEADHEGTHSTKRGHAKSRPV
T1 sequence (P02675 45-491): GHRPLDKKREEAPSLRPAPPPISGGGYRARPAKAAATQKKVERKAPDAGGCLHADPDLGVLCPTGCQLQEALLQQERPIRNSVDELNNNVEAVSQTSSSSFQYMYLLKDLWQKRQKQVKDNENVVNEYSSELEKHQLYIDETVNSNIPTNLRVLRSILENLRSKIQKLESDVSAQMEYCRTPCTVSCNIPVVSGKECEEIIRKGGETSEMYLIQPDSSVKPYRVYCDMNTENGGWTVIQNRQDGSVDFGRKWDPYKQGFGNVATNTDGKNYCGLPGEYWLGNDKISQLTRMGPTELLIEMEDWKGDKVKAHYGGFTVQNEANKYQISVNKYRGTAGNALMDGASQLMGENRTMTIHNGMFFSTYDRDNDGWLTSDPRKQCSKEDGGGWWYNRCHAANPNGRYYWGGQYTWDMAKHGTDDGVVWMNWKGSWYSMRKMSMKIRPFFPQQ
T1 sequence (P02679 27-437 isoform P02679-2): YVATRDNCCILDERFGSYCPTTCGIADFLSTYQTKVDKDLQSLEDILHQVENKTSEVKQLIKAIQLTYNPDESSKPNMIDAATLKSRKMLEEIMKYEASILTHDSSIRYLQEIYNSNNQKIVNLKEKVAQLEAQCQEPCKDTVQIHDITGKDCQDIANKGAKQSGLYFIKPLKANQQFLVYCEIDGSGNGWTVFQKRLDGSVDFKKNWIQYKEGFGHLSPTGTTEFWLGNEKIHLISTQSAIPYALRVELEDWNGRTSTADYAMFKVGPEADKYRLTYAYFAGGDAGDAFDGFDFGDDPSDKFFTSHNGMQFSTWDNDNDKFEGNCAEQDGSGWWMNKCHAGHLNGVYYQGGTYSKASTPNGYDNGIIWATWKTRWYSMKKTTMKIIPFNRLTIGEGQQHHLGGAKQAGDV
Briefly: Sephadex gel equilibrium binding, thrombin fibrin monomer. The conditions noted are these: 15 experiments, mean and standard deviation. The method, then: (§1) Acta 133, 376-379 (1979).
The purification of NDSK involves incubation of fibrinogen in cyanogen bromide in the presence of 70% formic acid. This treatment may alter the binding sites. Therefore, an attempt was made to reproduce the data using fibrin monomer instead of thrombin-treated NDSK. A major difficulty, the self-polymerization of fibrin monomer, was overcome by using high molar ratios of D1 Peptide to fibrin monomer. However, in this situation the concentration of D1 Peptide could be varied only over a small range of concentrations. D1 Peptide was added to the Sephadex gel equilibrium system and incubated for 10 min., then soluble fibrin monomer was added in a molar excess of D1 Peptide to fibrin monomer of 100-1000 fold. Under these conditions the lag time in the fibrin monomer polymerization was more than 30 min.
In experiments using thrombin fibrin monomer the number of binding sites for D1 Peptide was 1.82±0.26 (15 experiments, mean and standard deviation). For batroxobin fibrin monomer the number of binding sites was 1.91±0.24 (17 experiments, mean and standard deviation).

The next experiment concerns the target T2, fibrinogen (Homo sapiens, UniProt P02671+P02675+P02679).
T2 construct: purchased Grade L
T2 sequence (P02671 20-644 isoform P02671-2 limits assumed): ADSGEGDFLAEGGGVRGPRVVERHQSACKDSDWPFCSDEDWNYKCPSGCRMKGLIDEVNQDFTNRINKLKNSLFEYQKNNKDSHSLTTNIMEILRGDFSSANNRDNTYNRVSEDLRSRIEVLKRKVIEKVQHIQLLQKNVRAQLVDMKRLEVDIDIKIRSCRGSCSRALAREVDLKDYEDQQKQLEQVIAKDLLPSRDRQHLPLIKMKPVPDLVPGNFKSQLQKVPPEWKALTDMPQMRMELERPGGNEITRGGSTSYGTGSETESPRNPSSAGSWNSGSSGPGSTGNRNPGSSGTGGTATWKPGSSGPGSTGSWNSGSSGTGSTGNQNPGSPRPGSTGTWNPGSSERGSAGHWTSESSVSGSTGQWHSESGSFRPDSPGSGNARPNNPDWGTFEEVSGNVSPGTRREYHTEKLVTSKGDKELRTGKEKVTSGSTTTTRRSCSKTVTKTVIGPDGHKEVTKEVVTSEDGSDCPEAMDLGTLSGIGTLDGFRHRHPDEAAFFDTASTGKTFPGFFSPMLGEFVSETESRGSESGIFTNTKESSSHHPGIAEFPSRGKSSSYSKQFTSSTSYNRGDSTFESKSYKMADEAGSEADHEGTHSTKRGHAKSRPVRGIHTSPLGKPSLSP
T2 sequence (P02675 31-491): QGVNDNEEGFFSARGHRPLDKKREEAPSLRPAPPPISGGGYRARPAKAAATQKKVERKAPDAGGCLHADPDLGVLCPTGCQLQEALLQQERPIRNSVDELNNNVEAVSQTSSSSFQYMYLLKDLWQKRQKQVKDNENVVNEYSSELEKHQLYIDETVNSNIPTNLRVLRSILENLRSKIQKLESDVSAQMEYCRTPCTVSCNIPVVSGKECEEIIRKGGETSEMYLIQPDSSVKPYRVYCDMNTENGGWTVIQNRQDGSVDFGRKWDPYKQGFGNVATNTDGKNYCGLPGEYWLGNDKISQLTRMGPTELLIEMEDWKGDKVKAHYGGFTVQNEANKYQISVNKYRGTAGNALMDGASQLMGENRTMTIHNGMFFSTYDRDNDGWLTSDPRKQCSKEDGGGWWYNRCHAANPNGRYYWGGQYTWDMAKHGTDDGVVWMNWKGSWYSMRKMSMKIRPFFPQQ
T2 sequence (P02679 27-437 isoform P02679-2 limits assumed): T1 sequence (P02679 27-437 isoform P02679-2)
The experiment in a line: Equilibrium binding of 125-I D1 Peptide, fibrinogen.
Text: as §1

A further experiment has as its system thrombin time. The experiment in a line: Thrombin time test. Conditions: stated as 'could be caused'; no experiment described.

Peptide text beside a SMILES is read from it.

For `CC[C@H](C)[C@H](NC(=O)[C@H](CCCCN)NC(=O)[C@H](CCSC)NC(=O)[C@@H](NC(=O)[C@@H](NC(=O)[C@H](CCCCN)NC(=O)[C@H](CCCCN)NC(=O)[C@H](CCSC)NC(=O)[C@H](CO)NC(=O)[C@H](Cc1ccc(O)cc1)NC(=O)[C@H](Cc1c[nH]c2ccccc12)NC(=O)[C@H](CCCNC(=N)N)NC(=O)[C@@H](N)[C@@H](C)O)[C@@H](C)O)[C@@H](C)O)C(=O)N[C@H](C(=O)N1CCC[C@H]1C(=O)N[C@@H](Cc1ccccc1)C(=O)N[C@@H](CC(N)=O)C(=O)N[C@@H](CCCNC(=N)N)C(=O)N[C@@H](CC(C)C)C(=O)N[C@H](C(=O)N[C@H](C(=O)NCC(=O)N[C@@H](CCC(=O)O)C(=O)NCC(=O)N[C@@H](CCC(N)=O)C(=O)N[C@@H](CCC(N)=O)C(=O)N[C@@H](Cc1c[nH]cn1)C(=O)N[C@@H](Cc1c[nH]cn1)C(=O)N[C@@H](CC(C)C)C(=O)NCC(=O)NCC(=O)N[C@@H](C)C(=O)N[C@@H](CCCCN)C(=O)N[C@@H](CCC(N)=O)C(=O)N[C@@H](C)C(=O)NCC(=O)N[C@@H](CC(=O)O)C(=O)N[C@H](C(=O)O)C(C)C)[C@@H](C)CC)[C@@H](C)O)[C@@H](C)CC` [D1 Peptide] (H-TRWYSMKKTTMKIIPFNRLTIGEGQQHHLGGAKQAGDV-OH), the “number of binding sites for D1 Peptide” value at thrombin fibrin monomer was 1.82±0.26. Moreover, the binding to fibrinogen entry at fibrinogen is on record as “no measurable binding”. Moreover, in the experiment on thrombin time, the “blood concentration causing a 50% increase in thrombin time” value is recorded as “about 4.4×10^-6 M”.

Values taken from patent US4455290A, “Inhibition of fibrin polymerization by a peptide isolated from fibrin Fragment D1” (Research Corporation, priority 1981, dated 1984).
